{"source": "patent US10973863B2", "about": "“Method for regulating, preventing and/or treating pulmonary injury” (SINPHAR PHARMACEUTICAL CO., LTD., priority 2017, dated 2021)", "key": {"[1]": {"system": "TGFβ-induced intracellular accumulation of collagen in myofibroblast WI38 cells", "test": "Picrosirius red staining: TGFβ-induced collagen accumulation in WI38 cells", "assay_type": "cell-based", "conditions": "Table 7, 1 ng/mL TGF-β, 24 hours", "text": "As indicated above, the hyperactive expression of MMPs will cause pulmonary injury. Under the most circumstances, the response mechanisms in animals will activate, for example, macrophages will secret TGF-β and TGF-β which can promote the lung fibroblasts to secret collagen, so that the damaged tissues can be recovered. However, the hypersecretion of collagen will also lead to lung fibrosis. To investigate whether FU-LING extracts and its active ingredients are effective in regulating, protecting and/or treating the pulmonary injury-related diseases such as lung fibrosis or not, the Picrosirius red (PSR) staining was conducted as a semi-quantification of collagen, so that the inhibitory rate of FU-LING extract and its active ingredients on the TGFβ-induced intracellular accumulation of collagen in myofibroblast WI38 cells can be determined.\nMyofibroblast WI38 cells (purchased from ATCC, product no. CCL75™) were divided into ten groups and separately cultivated with the following media for 48 hours:\n(1) Blank group: a myolibroblast growth medium;\n(2) Control group: a myofibroblast growth medium containing 1 ng/mL TGF-β (purchased from R&D system);\n(3) Positive control group: a myofibroblast growth medium containing 1 ng/mL TGF-β and 200 μg/mL Pirfenidone (abbreviated as “Pir”; purchased from Sigma-Aldrich);\n(4) Extract A (including four sub-groups): a myofibroblast growth medium containing 1 ng/mL TGF-β and the extract A provided by [Preparation example A-2-2], wherein the extract A is present in the four sub-groups at a concentration of 12.5, 25, 50 and 100 μg/mL respectively; and\n(5) Extract B (including three sub-groups): a myofibroblast growth medium containing 1 ng/ml, TGF-β and the extract B provided by [Preparation example A-2-3], wherein the extract B is present in the […] at a concentration of 12.5, 25 and 50 μg/mL respectively.\nThereafter, the media were replaced by methanol to fix the cells at a temperature of −20° C. for 1 to 2 hours. After that, the cells were washed with PBS, and then stained with 0.1% PSR staining agent (purchased from Sigma-Aldrich) at room temperature for 4 hours. The stained cells were washed with 0.1% acetic acid, and then lysed with 0.1N sodium hydroxide to provide a lysate. The OD540 (i.e., the absorbance at a wavelength of 540 nm) of the lysate was measured. OD540 value of each group represents the content of collagen in each group, reflecting the content of collagen in fibroblast WI38 cells under different circumstances (the relative content of collagen in each group was calculated by serving the result of blank group as 0% and serving the result of control group as 100%).\nMyofibroblast WI38 cells were divided into twenty-eight groups and separately cultivated with the following media for 24 hours:\n(1) Blank group: a myofibroblast growth medium;\n(3) Positive control group; a myofibroblast growth medium containing 1 ng/mL TGF-β and 200 μg/mL Pirfenidone (abbreviated as “Pir”; purchased from Sigma-Aldrich);\n(4) Extract C group (including five sub-groups): a myofibroblast growth medium containing 1 ng/mL TGF-β and the extract C provided by [preparation example A-3-2], wherein the extract C is present in the five sub-groups at a concentration of […], 6.25 and 12.5 μg/mL respectively;\n(5) Extract D group (including five sub-groups): a myofibroblast growth medium containing 1 ng/mL TGF-β and the extract D provided by [preparation example A-4-2], wherein the extract D is present in the five sub-groups at a concentration of 0.78, 1.56, 3.13, 6.25 and 12.5 μg/mL respectively;\n(6) Extract E group (including five sub-groups): a myofibroblast growth medium containing 1 ng/mL TGF-β and the extract E provided by [preparation example A-4-3], wherein the extract E is present in the five sub-groups at a concentration of 0.78, 1.56, 3.13, 6.25 and 12.5 μg/mL respectively; […]"}, "Mucin 5AC": {"system": "Mucin 5AC", "test": "Western blot: LPS-induced expression of Mucin 5AC in NCI-H929 cells", "assay_type": "cell-based, human", "conditions": "1 μg/mL LPS, 24 hours, vs control group", "text": "As indicated above, the hypersecretion of mucus in airway can be observed in the patients suffering from pulmonary injury-related diseases, such as chronic obstructive pulmonary disease and emphysema, and the mucus hypersecretion is associated with the overexpression of mucins in pulmonary tissue. Symptoms like the increased sputum production will occur in the patients suffering from the mucin hypersecretion in airway, and the increased sputum will accumulate in the airway and lung, thereby making the airway narrow and increasing respiratory resistance. To investigate the effects of active ingredients of FU-LING extract in regulating, preventing, and/or treating the pulmonary injury-related diseases, such as chronic obstructive pulmonary disease and emphysema, a Western blot was conducted to measure the inhibitory rate of active ingredients of FU-LING extract (tumulosic acid and poricoic acid A) on the LPS-induced expression of Mucin 5AC in human lung epithelial NCI-H929 cells.\nHuman lung epithelial NCI-H929 cells were divided into ten groups and separately cultivated with the following media for 24 hours:\n(1) Control group: an epithelial cell growth medium containing […];\n(2) Positive control group: an epithelial cell growth medium containing 1 μg/mL LPS and 10 μM Dex;\n(3) TA group (including four sub-groups): an epithelial cell growth medium containing […] the tumulosic acid (TA) provided by [preparation example C-1], wherein the tumulosic acid (TA) is present in the four sub-groups at a concentration of 1.56, 3.13, 6.25 and 12.5 μg/mL respectively; and\n(4) PAA group (including four sub-groups): an epithelial cell growth medium containing 1 μg/mL LPS the poricoic acid A (PAA) provided by [preparation example C-1], wherein the poricoic acid A (PAA) is present in the four sub-groups at a concentration of 6.25, 12.5, 25 and 50 μg/mL respectively.\nThereafter, the proteins in the cells of each group were extracted and then subjected to a Western blot to measure the expression level of Mucin 5AC. The relative expression level of Mucin 5AC of each group was calculated by using the results of the control group as a basis (i.e., the expression level of control group was served as 1-fold)."}}}
{"smiles": "C=C(CC[C@@H](C(=O)O)[C@H]1[C@H](O)C[C@@]2(C)C3=CC[C@@H](C(=C)C)[C@](C)(CCC(=O)O)C3=CC[C@]12C)C(C)C", "note": "[PAA, poricoic acid A]", "values": [{"measurement": "Relative content of collagen (%)", "setting": "[1]; 6.25 μg/mL", "result": 82, "unit": "%"}, {"measurement": "Relative content of collagen (%)", "setting": "[1]; 12.5 μg/mL", "result": 78, "unit": "%"}, {"measurement": "Relative content of collagen (%)", "setting": "[1]; 25 μg/mL", "result": 48, "unit": "%"}, {"measurement": "Relative content of collagen (%)", "setting": "[1]; 50 μg/mL", "result": 0, "unit": "%"}, {"measurement": "Relative content of collagen (%)", "setting": "[1]; 100 μg/mL", "result": 0, "unit": "%"}, {"measurement": "Inhibitory rate on LPS-induced expression of Mucin 5AC", "setting": "Mucin 5AC; 6.25 μg/mL (low-dose)", "result": "up to 63%"}, {"measurement": "Inhibitory rate on LPS-induced expression of Mucin 5AC", "setting": "Mucin 5AC; 50 μg/mL (high-dose)", "result": "≤ 87", "unit": "%"}]}
